Measured values: US20020107197A1, “Ligands for G protein coupled receptors and methods of using them” (priority 2000, published 2002)

Experiments:
Type in all cases: cell-based
OGR1 = biological target: T1, OGR1 (Homo sapiens, UniProt Q15743); assay: ERK activation in OGR1-infected Swiss 3T3 cells
T1 construct: expressed in transfected cells

GPR4 [1] = biological target: T2, GPR4 (Homo sapiens, UniProt P46093); assay: Single-cell intracellular calcium assay (fura-2) in GPR4-GFP-transfected MCF10A cells; details: PTX 100 ng/ml, 16 h pretreatment
T2 construct: were used to generate full length GPR4, which was digested with EcoRI and Xba I and cloned into the pBs3HA vector; expressed in transfected cells
T2 sequence (P46093 whole entry): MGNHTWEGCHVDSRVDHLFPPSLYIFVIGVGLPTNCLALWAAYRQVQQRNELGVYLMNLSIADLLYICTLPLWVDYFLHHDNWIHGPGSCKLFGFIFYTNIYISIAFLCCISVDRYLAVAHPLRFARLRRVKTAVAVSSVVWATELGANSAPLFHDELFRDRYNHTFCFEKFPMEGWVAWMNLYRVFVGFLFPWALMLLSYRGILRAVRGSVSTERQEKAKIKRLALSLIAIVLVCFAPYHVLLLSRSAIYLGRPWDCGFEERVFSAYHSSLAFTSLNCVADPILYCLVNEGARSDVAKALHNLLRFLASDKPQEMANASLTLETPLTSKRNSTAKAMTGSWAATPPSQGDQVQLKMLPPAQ
Description: Measurement of [Ca^2+]i, was performed as described previously in Xu et al. (2000) Nat Cell Biol 2, 261-267. Briefly, pGPR4-GFP-transfected MCF10A cells were grown in specialized glass-bottom dishes (Bioptech, Inc., Butler, Pa.) and loaded with fura-2 in HEPES buffered saline. Using a dual-wavelength spectrofluorometer (RFK-6002, Photon Technology Int'l, So. Brunswick, N.J.) coupled to an inverted fluorescence microscope (Olympus, IX-70, Lake Success, N.Y.), GFP-positive cells were identified using an excitation wavelength of 488 nm, a dichroic 505 nm long-pass filter and an emitter filter at bandpass of 535 nm (Chroma Technology, Brattleboro, Vt.). Measurements of [Ca^2+]i were performed on individual GPR4-GFP positive cells at excitation wavelengths of 340 and 380 nm and an emission wavelength of 510 nm. Conversion of the 340/380 ratio value into [Ca^2+]i in nM was estimated by comparing the cellular fluorescence ratio with ratios acquired using fura-2 (free acid) in buffers containing known Ca^2+ concentrations. [Ca^2+]i was then calculated as described by Grynkiewicz et al. (1985) J Biol Chem 260, 3440-3450. All calcium assays were performed in the presence of 1 mM EGTA in the assay buffers. Therefore, intracellular calcium release, not calcium influx, was analyzed.
To test whether GPR4 is a receptor for SPC, MCF10A cells were transiently transfected with pGPR4-GFP.
The GFP receptor fusion was used to identify positively transfected cells, and single-cell calcium assays were performed as described in our previous studies, such as Xu et al. (2000) Nat Cell Biol 2, 261-267.

GPR4 [2] = biological target: T2, GPR4; assay: ERK MAP kinase activation (phospho-ERK Western blot) in GPR4-infected Swiss 3T3 cells; details: PTX 100 ng/ml 12-16 h
Description: MAP kinases are key signaling intermediates of DNA synthesis and cell proliferation. Swiss 3T3 cells were infected with MSCV GPR4-ires-GFP or MSCV ires-GFP, and subsequently cells sorted by FACS for positive expression of GFP as described previously (Kabarowski et al. (2000) Proc Natl Acad Sci USA. 97, 12109-12114). Cells were plated in 6-well plates in DMEM containing 5% FBS, serum-starved overnight, and then treated lipids in DMEM for the indicated times. Cells were lysed on ice in RIPA buffer containing 50 mM Tris-HCl, pH 7.5, 1% Nonidet P-40, 0.5% deoxycholate,0.1% SDS, 150 mM NaCl, 2 mM EGTA, 25 mM sodium fluoride, 1 mM sodium orthovanadate, and 1× protease inhibitors (Sigma P8340). Lysates containing equal amounts of protein were separated on 10% SDS-polyacrylamide gels and transferred onto nitrocellulose membranes. Antibodies against phosphorylated ERK1/2 (Cell Signaling Technologies; Beverly, Mass.) were used to probe the membrane and the ECL system (Amersham) was used for detection. To normalize the amounts of protein loaded in each lane, membranes were stripped and re-probed with antibodies against total ERK (Cell Signaling Technologies). In some experiments, cells were pretreated with 100 ng/ml PTX for 12-16 h prior to SPC and LPC stimulation.

GPR4 [3] = biological target: T2, GPR4; assay: SRE luciferase reporter in GPR4-transfected HEK293 cells; details: PTX 100 ng/ml 16 h; C3-exoenzyme co-transfected
Description: The serum-response element (SRE) reporter system is a sensitive assay for receptors of lipid factors (An et al. (1998) J Biol Chem 273, 7906-7910; An et al. (1999) Mol Pharmacol 55, 787-794). The SRE reporter system used herein (pSRE-Luc) was a gift from Dr. Songzhu An (UCSF), or may be purchased from Stratagene (La Jolla, Calif.). Both systems give identical results. HEK293 and HEK293GPR4 cells were cultured in RPMI1640 with 10% FBS in 10 cm dishes to ˜85% confluence. To the cells in each dish, pSRE-Luc (10 μg) was transfected in the presence of 60 μl LipofectAMINE reagent. Cells were seeded in 96-well plates 16 h after transfection, incubated for another 24 h in RPMI1640 with 10% FBS, and starved in serum-free medium for 16 h. SPC (dissolved in PBS to 10 mM) and other lipids (LPCs were dissolved in 70% ethanol. Other lipids were dissolved in PBS, 70-95% ethanol, or 100% MeOH) were diluted in serum free RPMI 1640 and added to the cells, followed by a 10 h incubation. Luciferase activity was measured in Microlite™ 1 plates (DYNEX Technologies, Inc., Virginia) using 60 μl of cell lysate and 20 μl luciferase substrate. PTX (100 ng/ml) was added during the 16 h serum starvation period and pcDNA1-C3 (encoding the C3-exoenzyme, 2 μg) was co-transfected with pSRE-Luc (10 μg). All experiments were performed in quadruplicate and were repeated at least three times. The Student's t test was performed using the GraphPad Instat software (San Diego, Calif.). p<0.05 was considered to be statistically significant.

GPR4 [4] = biological target: T2, GPR4; assay: DNA synthesis ([3H]thymidine incorporation) in GPR4-infected Swiss 3T3 cells; details: PTX 100 ng/ml for 16 h; GFP- and GPR4-GFP expressing cells
Description: The effect of SPC and LPC on DNA synthesis was measured using [^3H] thymidine incorporation. Briefly, GPR4-ires-GFP- and GFP-Swiss 3T3 cells were plated in 96-well plates, serum-starved for 24 h, and treated with SPC, LPC, or other lipids in serum-free DMEM for 24 h. Cells were incubated with 0.75 μCi/ml [^3H]thymidine in serum-free DMEM for the last 18 h. Cells were harvested onto filter papers presoaked in 1% polyethylenimine using the automated cell harvester HARVEST 96. Incorporated [^3H]thymidine was counted in a 1450 Microbeta Trilux Liquid Scintillation and Luminescence Counter (Perkin-Elmer-Wallac, Inc.).

T1 sequence (Q15743 whole entry, species assumed): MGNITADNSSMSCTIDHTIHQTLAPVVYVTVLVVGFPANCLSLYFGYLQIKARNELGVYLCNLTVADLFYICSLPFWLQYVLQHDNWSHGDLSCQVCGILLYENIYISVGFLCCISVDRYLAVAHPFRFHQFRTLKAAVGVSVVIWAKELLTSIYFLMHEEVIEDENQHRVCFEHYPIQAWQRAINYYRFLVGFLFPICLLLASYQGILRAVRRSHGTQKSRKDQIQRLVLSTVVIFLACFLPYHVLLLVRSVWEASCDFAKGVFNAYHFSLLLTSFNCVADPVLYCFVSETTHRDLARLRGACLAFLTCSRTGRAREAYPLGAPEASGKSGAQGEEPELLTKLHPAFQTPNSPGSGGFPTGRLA

pertussis toxin [PTX]
PTX sensitivity of SPC-induced ERK activation (OGR1): PTX-insensitive | effect of PTX on [Ca2+]i response to SPC and LPC (GPR4 [1]): completely abolished | PTX sensitivity of SPC-induced ERK activation (GPR4 [2]): sensitive to PTX | inhibition of SRE-reporter activation by SPC and 16:0-LPC (GPR4 [3]): partially inhibited SRE-reporter activation | effect of PTX on DNA synthesis stimulated by SPC (GPR4 [4]): inhibited by PTX
